Here are results for 123 compounds from a melting point compilation (Tetko et al.).

On to `CN(Cc1ccccc1)c1ccc([N+](=O)[O-])cn1`, for which the melting point (usually the temperature of the solid-liquid transition) was in the range of 56 to 58 °C. The same measure for `CSc1nc(C2CC2)cc(C(=O)O)c1C#N`: 181 to 183 °C; for `CN(C)CCNS(=O)(=O)c1ccc(Cl)c([N+](=O)[O-])c1`: 88 to 90 °C. In the case of `OC(c1ccccc1)c1nc(-c2ccccc2)no1` (stereo not drawn), the melting point lay in the range of 97 to 99 °C. The same measure for `Cc1nn(C)c2ncc(C=O)cc12`: 107 to 109 °C.

The compound `NCC(=O)Nc1ccc(F)cc1` came in with a melting point of 85 to 87 °C. On to `NC(=O)CC1CCNCC1`, for which the melting point is 146 to 148 °C. The same measure for `N#Cc1ccc(N2C(=O)C=CC2=O)cc1`: 138 to 140 °C.

`Cc1cc(C)cc(C=CC(=O)O)c1` displayed a melting point of 135 to 137 °C. The same measure for `O=S(=O)(Nc1nc2ccccc2nc1Cl)c1cc(F)ccc1F`: 250 to 252 °C; for `CCOC(=O)C(C#N)C(N)=O` (stereo not drawn): 152 to 154 °C; for `Cc1cc2cc(C=O)oc2cc1C`: 69 to 71 °C. The same measure for `CCC(C)n1c(S)nnc1-c1ccccc1` (stereo not drawn): 166 to 168 °C; for `Cc1nn(C)c(C)c1C(=O)C(N)=O`: 182 to 184 °C; for `CC(Oc1ccc(-c2ccccc2)cc1)C(=O)O` (stereo not drawn): 159 to 161 °C.

`Cc1nnc(N2CCCC2)c(C(N)=O)c1C`: the melting point was in the range of 211 to 213 °C.

`Cc1cc(C)c(C(=O)O)cc1N` came in with a melting point of 203 to 205 °C.

On to `Cc1c(N)cccc1S(=O)(=O)NC1CC1`, for which the melting point was in the range of 111 to 113 °C.

Compound `ClCc1nc(-c2ccc3c(c2)OCO3)no1` gave a melting point of 50 to 52 °C. The same measure for `CCOC(=O)c1cc2ccc(Br)cc2[nH]1`: 187 to 189 °C; for `Cc1sc(NC(=O)CCl)c(C#N)c1C`: 180 to 182 °C. `Cc1cccc(NC(=O)CCCCl)c1`: the melting point was in the range of 137 to 139 °C. As to `Cc1csc(=O)n1CCCC(=O)O`, the melting point lay within 97 to 99 °C. In the case of `NC(=O)C1=CCCC1`, the melting point was 166 to 168 °C. As for `Cc1cc(C(=O)O)c2c(C)n[nH]c2n1`, the melting point lay in the range of 299 to 301 °C. The same measure for `CS(=O)(=O)Cc1c(N)cccc1F`: 129 to 131 °C. `CCCCCCC(NC)C(=O)O` (stereo not drawn): the melting point was 259 to 261 °C.

`COC(=O)COc1ccc(C(C)=O)cc1` came in with a melting point of 85 to 87 °C. The same measure for `Cc1ccc(-n2cc(C(=O)O)c(C(C)(C)C)n2)cc1`: 218 to 220 °C.

As to `NS(=O)(=O)c1ccccn1`, the melting point lay within 141 to 143 °C.

For the compound `O=C(NC1CCCCNC1=O)OCC(F)(F)F` (stereo not drawn), the melting point is 199 to 201 °C. In the case of `Clc1noc(-c2ccccc2)n1`, the melting point is 31 to 33 °C. The same measure for `O=C1CCc2cc(Cl)c(S(=O)(=O)Cl)cc2N1`: 207 to 209 °C. The same measure for `COc1ccc(C)cc1-n1ccc(C(=O)O)n1`: 158 to 160 °C. The same measure for `O=C1NCCS1`: 51 to 53 °C.

`Cc1nc(CCCC(=O)O)cs1` came in with a melting point of 66 to 68 °C.

`Cc1nc(-c2ccccc2)sc1CCl` came in with a melting point of 84 to 86 °C.

The compound `COc1ccc(CNC(=O)C(C#N)=CN(C)C)cc1` gave a melting point of 128 to 130 °C. The same measure for `CCOC(=O)c1cnn(C)c1NC(=O)CCl`: 90 to 92 °C; for `N#Cc1c(CCl)cn2ccccc12`: 143 to 145 °C; for `COC(=O)C1=NN(c2cccc(C(=O)O)c2)C(=O)C1CCO` (stereo not drawn): 211 to 213 °C. The same measure for `O=C(O)c1oc2ccccc2c1Cn1cccn1`: 226 to 228 °C. The same measure for `COc1ccc(OCc2cc(C)on2)c(C(=O)O)c1`: 114 to 116 °C; for `O=C(O)CSc1cnc2ccccc2n1`: 178 to 180 °C. Compound `NC(=NO)c1ccc(Oc2ccc(F)cc2)nc1` came in with a melting point of 194 to 196 °C. The same measure for `CS(=O)(=O)c1ccc(-c2nnc(N)o2)cc1`: 297 to 299 °C. As for `N#CCCn1c(S)nc2ccccc21`, the melting point lay in the range of 154 to 158 °C. Take `CNC(=O)c1ccc(N)cc1Cl`: the melting point was in the range of 147 to 149 °C.

With `O=C(O)CCOc1ccccc1Cl`, the melting point lay in the range of 115 to 117 °C. The same measure for `CCOC(=O)c1c(N)c(C#N)cn1CCOC`: 99 to 101 °C; for `Cc1oc2nc[nH]c(=O)c2c1C(=O)O`: 149 to 151 °C; for `CC(C)Oc1ccc(Cl)c(C(=O)O)n1`: 70 to 72 °C. In turn, `C#CCN1C(=O)C(=O)c2cc(Br)ccc21` yielded a melting point of 164 to 166 °C. The same measure for `COc1c(F)cc(Br)cc1S(=O)(=O)Cl`: 50 to 52 °C. `NCc1ccc(Oc2ccc(F)cc2)nc1` yielded a melting point of 51 to 53 °C. The same measure for `Cc1cc(Cl)nnc1C`: 45 to 47 °C; for `CN(C)Cc1cccc(N)c1`: 40 to 42 °C; for `C=CCc1cc(OCC)ccc1O`: 135 to 137 °C.

Take `CCOC(=O)Cc1cc(=O)oc2ccc(O)cc12`: the melting point lay within 173 to 175 °C. `N#Cc1cc(N)ncc1Br`: the melting point is 184 to 186 °C. For the compound `Cc1cc(-c2nnc3ccccn23)ccc1N`, the melting point was in the range of 180 to 182 °C. The same measure for `CC(O)c1ccc2c(c1)NC(=O)CO2` (stereo not drawn): 137 to 139 °C; for `CC(C)(C)OC(=O)N1CCCc2ccc(N)cc21`: 90 to 92 °C. The same measure for `COc1ccc(N)cc1NC(=O)c1cccc(F)c1`: 100 to 102 °C; for `COc1ccccc1Nc1nc2sc(C(=O)O)cc2s1`: 235 to 237 °C; for `CCS(=O)(=O)c1ccc(CCC(=O)O)cc1`: 119 to 121 °C. In the case of `CNC(=O)Cc1ccccc1N`, the melting point lay within 85 to 87 °C. With `CCN1N=C(C(F)(F)F)CC1=O`, the melting point fell in the range of 169 to 171 °C. The same measure for `CC(C)(C)OC(=O)NCC1CCCCC1N` (stereo not drawn): 61 to 63 °C; for `O=C(Cn1cnnn1)Nc1ccccc1C(=O)O`: 194 to 196 °C; for `CC(C)(C)OC(=O)N1CCCC(COCC(=O)O)C1` (stereo not drawn): 74 to 76 °C. The same measure for `O=C(CCl)NC(=O)NCc1cccs1`: 148 to 150 °C. On to `Nn1cnnc1-c1ccccc1`, for which the melting point lay in the range of 115 to 117 °C. The same measure for `Cc1sc2nc(CC#N)[nH]c(=O)c2c1C`: 283 to 285 °C; for `CCOC(=O)C(=O)CC(=O)c1ccc(Cl)cc1Cl`: 68 to 70 °C; for `O=C(O)c1ccc(COc2ccccc2)cc1`: 214 to 216 °C.

Turning to `O=C(O)C1CCN(S(=O)(=O)N2CCCCC2)CC1`, the melting point lay in the range of 131 to 133 °C. In the case of `CC(=O)NCCc1ccc(S(=O)(=O)Cl)s1`, the melting point was 87 to 89 °C. In turn, `NC(CSCCc1ccccc1)C(=O)O` (stereo not drawn) had a melting point of 210 to 212 °C. The compound `Cc1c(C(=O)O)cnn1C1CCOCC1` registered a melting point of 207 to 209 °C.

Consider `NCc1ccc(N2CCN(c3ncccn3)CC2)c(F)c1`, for which the melting point is 90 to 92 °C. In turn, `Clc1ccc2c(c1)NCCS2` displayed a melting point of 110 to 112 °C. The same measure for `Cc1cc(C(=O)O)cc(S(=O)(=O)Cl)c1F`: 193 to 195 °C; for `O=C(O)C1CC1c1ccc(OC(F)(F)F)cc1` (stereo not drawn): 96 to 98 °C. The same measure for `O=C(O)c1ncoc1C(F)(F)F`: 94 to 96 °C; for `COc1cc2nc(N)sc2cc1OC`: 224 to 226 °C; for `O=[N+]([O-])c1cccc(OCC2CO2)c1` (stereo not drawn): 63 to 65 °C. Consider `Clc1ccc(-n2ccnc2)nn1`, for which the melting point lay in the range of 185 to 187 °C. `OCc1ccnc(-n2ccnc2)c1` registered a melting point of 155 to 157 °C. The same measure for `COc1cn(-c2cccc(C(F)(F)F)c2)nc1C(=O)O`: 149 to 151 °C.

In turn, `CC(C)Nc1nnc(S)s1` returned a melting point of 194 to 196 °C. The compound `Cc1n[nH]c(C)n1` yielded a melting point of 127 to 131 °C. The same measure for `Cc1c(C#N)c(NC(=O)CCl)n(Cc2ccc(F)cc2)c1C`: 279 to 281 °C; for `CS(=O)(=O)Nc1nc2ccc(N)cc2s1`: 281 to 283 °C; for `CNc1ccc(F)cc1[N+](=O)[O-]`: 71 to 73 °C. With `COC(=O)c1ccc(N)c([N+](=O)[O-])c1`, the melting point fell in the range of 201 to 203 °C. The same measure for `O=C(O)CCn1cc[nH]c(=O)c1=O`: 239 to 241 °C; for `NC(=O)N1CCN2C(=O)NC(=O)C2C1` (stereo not drawn): 250 to 252 °C; for `NC(CC(=O)Nc1ccccc1)=NO`: 156 to 158 °C.

As to `COc1ccc(CNC(=O)C(C)Cl)cc1OC` (stereo not drawn), the melting point was 97 to 99 °C.

The compound `Cc1cc(Br)c(O)c(C(=O)O)c1` had a melting point of 201 to 203 °C. `O=C(O)CC1CCSCC1` returned a melting point of 69 to 71 °C. The same measure for `Sc1nnc(N2CCOCC2)n1CC1CCCO1` (stereo not drawn): 186 to 188 °C; for `Cc1cc(F)ccc1-n1cc(O)c(C(=O)O)n1`: 149 to 151 °C. The same measure for `CC(O)c1ccc(CN)cc1` (stereo not drawn): 87 to 89 °C; for `CN(C)C(=O)CNc1ccccc1`: 114 to 116 °C; for `CC(NC(=O)c1cccc(Cl)c1Cl)C(=O)O` (stereo not drawn): 152 to 154 °C.

For the compound `Cn1ncc(CN)c1N`, the melting point was in the range of 91 to 93 °C. The same measure for `Nc1ncccc1OCc1cccnc1`: 104 to 106 °C; for `CCCCCNCC(N)=O`: 64 to 66 °C.

`O=C(O)c1ccccc1NS(=O)(=O)c1ccc(Cl)c(Cl)c1` yielded a melting point of 143 to 147 °C.

As for `Cc1ccc(COc2cccc(N)c2)cc1`, the melting point was in the range of 81 to 83 °C. The same measure for `COc1ccc(-n2c(C)c(C)c3c(N)ncnc32)cc1`: 231 to 233 °C. The same measure for `CC(=O)NCc1ccc(C(=O)C(C)Cl)s1` (stereo not drawn): 79 to 81 °C; for `O=C(O)c1ccc(Oc2ccc(Br)cc2)nc1`: 175 to 177 °C; for `O=C(C1=CNCCC1)c1ccccc1`: 90 to 92 °C. With `FC(F)n1ccnc1COc1ccc(Br)cc1`, the melting point fell in the range of 61 to 63 °C. On to `CCCC(NC(=O)NCc1ccc(Br)cc1)C(=O)O` (stereo not drawn), for which the melting point lay within 160 to 162 °C.

Take `COC(=O)c1cc(N)c(Br)cc1F`: the melting point fell in the range of 87 to 89 °C.

As to `O=c1[nH]cnc2ncccc12`, the melting point is 249 to 251 °C. The same measure for `COc1ccc(Nc2n[nH]c(N)c2C#N)cc1`: 119 to 121 °C; for `CCN1CCc2nc(N)sc2C1`: 71 to 80 °C. The same measure for `COc1cc(C=CC(=O)O)ccc1F`: 211 to 213 °C.
